In patent EP4653437A2 (Innovo Therapeutics Inc., priority 2023, dated 2024):

How the values were obtained:
[1] = biological target: T1, human 15-PGDH (Homo sapiens, UniProt P15428); experiment: Evaluation of 15-PGDH inhibitory activity (fluorescence enzyme assay, NAD+/PGE2); assay type: biochemical; conditions: human 15-PGDH enzyme, fluorescence Vmax
T1 construct: purchased R&D System 5660-DH
T1 sequence (P15428 1-266): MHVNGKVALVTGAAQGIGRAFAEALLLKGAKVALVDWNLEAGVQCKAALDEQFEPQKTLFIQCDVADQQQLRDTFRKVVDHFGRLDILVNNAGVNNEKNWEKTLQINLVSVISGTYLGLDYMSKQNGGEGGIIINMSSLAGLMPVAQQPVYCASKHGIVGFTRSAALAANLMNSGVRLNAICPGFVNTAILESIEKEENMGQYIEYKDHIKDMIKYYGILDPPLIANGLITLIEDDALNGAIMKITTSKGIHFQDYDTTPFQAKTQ
Procedure: 15-PGDH inhibition activity of Example compounds was measured as follows. 6.7 ng of human 15-PGDH (R&D System# 5660-DH) enzyme (10 µL) was added to a black 96 well plate, 60 µL of buffer (50 mM Tris-HCl, pH 7.5, 0.01% Tween 20) was added, and 10 µL of 200 µM β-Nicotinamide adenine dinucleotide sodium salt (Sigma, Cat# N0632-5G) was added. 10 µL of (10x) compound solution in DMSO was added and reacted for 10 minutes at room temperature.

[2] = tested on: A549 cells; experiment: Measurement of PGE2-increasing activity in A549 cells (IL-1β stimulated, PGE2 quantified in supernatant); assay type: cell-based; conditions: for fold induction at 1 µM: Homo sapiens, 24 h, concentration of 1 µM of each compound, IL-1β treated A549 cells, read-out: Increased PGE2 production in A549 cells
Method in brief: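 A549 cells grown 24 h in F12K with 10% FBS, then switched to serum-free medium with or without IL-1β and compound (0.1% DMSO final). After 24 h at 37 °C, 5% CO2, supernatant PGE2 quantified by immunoassay.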

| SMILES | IC50 [1] | fold induction at 1 µM [2] | Increased PGE2 production in A549 cells [2] |
| --- | --- | --- | --- |
| CC(C)N1CCN(C(=O)c2cncc(-c3cccc4c(C(=O)N5CCCCC5)cnn34)c2)CC1 [Example 50, (4-isopropylpiperazin-1-yl)(5-(3-(piperidine-1-carbonyl)pyrazolo[1,5-a]pyridin-7-yl)pyridin-3-yl)methanone] | ≤ 100 nM | > 1.5 | – |
| CNC(=O)c1ccc(-c2cccc3c(C(=O)N4CCCCC4)cnn23)cc1 [Example 58, N-methyl-4-(3-(piperidine-1-carbonyl)pyrazolo[1,5-a]pyridin-7-yl)benzamide] | ≤ 100 nM | > 1.5 | – |
| O=C1CN(C(=O)c2cncc(-c3cccc4c(C(=O)N5CCCCC5)cnn34)c2)CCN1 [Example 203, 4-[5-[3-(piperidine-1-carbonyl)pyrazolo[1,5-a]pyridin-7-yl]pyridine-3-carbonyl]piperazin-2-one] | ≤ 100 nM | > 1.5 | – |
| O=C(c1cnn2c(-c3cc(-c4cnoc4)nc(N4CCOCC4)c3)cccc12)N1CCCCC1 [Example 366, (7-(2-(isoxazol-4-yl)-6-morpholinopyridin-4-yl)pyrazolo[1,5-a]pyridin-3-yl)(piperidin-1-yl)methanone] | ≤ 100 nM | > 1.5 | – |
| CC(C)NC(=O)c1cccc(-c2cccc3c(C(=O)N4CCCCC4)cnn23)c1 [Example 28, N-isopropyl-3-(3-(piperidine-1-carbonyl)pyrazolo[1,5-a]pyridin-7-yl)benzamide] | ≤ 100 nM | > 1.5 | – |
| O=C(c1cnn2c(-c3ccc(-c4ccoc4)cc3)cccc12)N1CCCCC1 [Example 302, [7-[4-(3-furyl)phenyl]pyrazolo[1,5-a]pyridin-3-yl]-(1-piperidyl)methanone] | ≤ 100 nM | < 1.5 | – |
| O=C1CC(C(=O)Nc2ccc(-c3cccc4c(C(=O)N5CCCCC5)cnn34)cn2)CCN1 (centres unmarked) [Example 105, 2-oxo-N-(5-(3-(piperidine-1-carbonyl)pyrazolo[1,5-a]pyridin-7-yl)pyridin-2-yl)piperidine-4-carboxamide] | ≤ 100 nM | – | ++ (key: +: 0 < PGE2 increasing ability < 1.5; ++: PGE2 increasing ability ≥ 1.5) |
| Cn1cnc(Nc2cccc3c(C(=O)N4CCCCC4)cnn23)cc1=O [Example 236, 3-methyl-6-[[3-(piperidine-1-carbonyl)pyrazolo[1,5-a]pyridin-7-yl]amino]pyrimidin-4-one] | ≤ 100 nM | > 1.5 | – |
| O=C1NCc2ccc(-c3cccc4c(C(=O)N5CC=CCC5)cnn34)cc21 [Example 401, 6-(3-(1,2,3,6-tetrahydropyridine-1-carbonyl)pyrazolo[1,5-a]pyridin-7-yl)isoindolin-1-one] | ≤ 100 nM | > 1.5 | – |
| O=C(NCC1CC1)c1cccc(-c2cccc3c(C(=O)N4CCCCC4)cnn23)c1 [Example 32, N-(cyclopropylmethyl)-3-(3-(piperidine-1-carbonyl)pyrazolo[1,5-a]pyridin-7-yl)benzamide] | ≤ 100 nM | < 1.5 | – |
| O=C1NCc2ccc(Nc3cccc4c(C(=O)N5CCCCC5)cnn34)cc21 [Example 212, 6-[[3-(piperidine-1-carbonyl)pyrazolo[1,5-a]pyridin-7-yl]amino]isoindolin-1-one] | ≤ 100 nM | > 1.5 | – |
| O=C(c1cccc(-c2cccc3c(C(=O)N4CCCCC4)cnn23)c1)N1CCOCC1 [Example 26, (7-(3-(morpholine-4-carbonyl)phenyl)pyrazolo[1,5-a]pyridin-3-yl)(piperidin-1-yl)methanone] | ≤ 100 nM | > 1.5 | – |

Now from value to compound, other results behind:

| IC50 [1] | SMILES | fold induction at 1 µM [2] | Increased PGE2 production in A549 cells [2] |
| --- | --- | --- | --- |
| ≤ 100 nM | O=C(c1cnn2c(-c3ccc4cn[nH]c(=O)c4c3)cccc12)N1CCCCC1 [Example 224, 7-(3-(piperidine-1-carbonyl)pyrazolo[1,5-a]pyridin-7-yl)phthalazin-1(2H)-one] | > 1.5 | – |
| ≤ 100 nM | O=C(c1cnn2c(-c3ccc(O)c(Cl)c3)cccc12)N1CCCCC1 [Example 21] | > 1.5 | – |
| ≤ 100 nM | Cn1nc2cc(-c3cccc4c(C(=O)N5CCCCC5)cnn34)ccn2c1=O [Example 252, 2-methyl-7-(3-(piperidine-1-carbonyl)pyrazolo[1,5-a]pyridin-7-yl)-[1,2,4]triazolo[4,3-a]pyridin-3(2H)-one] | > 1.5 | – |
| ≤ 100 nM | O=C(NCC1CC1)c1ccc(-c2cccc3c(C(=O)N4CCCCC4)cnn23)cn1 [Example 80, N-(cyclopropylmethyl)-5-(3-(piperidine-1-carbonyl)pyrazolo[1,5-a]pyridin-7-yl)picolinamide] | > 1.5 | – |
| ≤ 100 nM | O=C(c1cnn2c(-c3cnc(F)c(F)c3)cccc12)N1CCCCC1 [Example 288, (7-(5,6-difluoropyridin-3-yl)pyrazolo[1,5-a]pyridin-3-yl)(piperidin-1-yl)methanone] | > 1.5 | – |
| ≤ 100 nM | Cc1nc(-c2cc(-c3cccc4c(C(=O)N5CCCCC5)cnn34)ccc2F)no1 [Example 276, [7-[4-fluoro-3-(5-methyl-1,2,4-oxadiazol-3-yl)phenyl]pyrazolo[1,5-a]pyridin-3-yl]-(1-piperidyl)methanone] | > 1.5 | – |
| ≤ 100 nM | COc1ccc(-c2cccc3c(C(=O)N4CCCCC4)cnn23)cc1C(F)(F)F [Example 20, (7-(4-methoxy-3-(trifluoromethyl)phenyl)pyrazolo[1,5-a]pyridin-3-yl)(piperidin-1-yl)methanone] | > 1.5 | – |
| ≤ 100 nM | O=C(c1cnn2c(-c3cnc(Cl)c(F)c3)cccc12)N1CCCCC1 [Example 281, (7-(6-chloro-5-fluoropyridin-3-yl)pyrazolo[1,5-a]pyridin-3-yl)(piperidin-1-yl)methanone] | > 1.5 | – |
| ≤ 100 nM | O=C(c1cnn2c(-c3cccc(C=NO)c3)cccc12)N1CCCCC1 [Example 253, 3-(3-(piperidine-1-carbonyl)pyrazolo[1,5-a]pyridin-7-yl)benzaldehyde oxime] | > 1.5 | – |
| ≤ 100 nM | CNC(=O)c1cccc(-c2cccc3c(C(=O)N4CCCCC4)cnn23)c1 [Example 27, N-methyl-3-(3-(piperidine-1-carbonyl)pyrazolo[1,5-a]pyridin-7-yl)benzamide] | < 1.5 | – |
| ≤ 100 nM | O=C(c1cnn2c(-c3cnc(-c4nnc(C(F)F)[s+]4[O-])nc3)cccc12)N1CCCCC1 (centres unmarked) [Example 404, [7-[2-[5-(difluoromethyl)-1-oxo-1,3,4-thiadiazol-2-yl]pyrimidin-5-yl]pyrazolo[1,5-a]pyridin-3-yl]-(1-piperidyl)methanone] | > 1.5 | – |
| ≤ 100 nM | O=C(c1cnn2c(-c3cnc(N4CCOC4=O)nc3)cccc12)N1CCCCC1 [Example 308, 3-(5-(3-(piperidine-1-carbonyl)pyrazolo[1,5-a]pyridin-7-yl)pyrimidin-2-yl)oxazolidin-2-one] | > 1.5 | – |
| ≤ 100 nM | O=C(c1cnn2c(-c3cnc(-c4nnco4)c(F)c3)cccc12)N1CCCCC1 [Example 380, [7-[5-fluoro-6-(1,3,4-oxadiazol-2-yl)-3-pyridyl]pyrazolo[1,5-a]pyridin-3-yl]-(1-piperidyl)methanone] | > 1.5 | – |
